BindingDB's records for doi:10.1021/jm00128a025 (Roche Research Center, 1989)

Columns and labels:
[1] = Inhibition of platelet-activating factor receptor binding activity in dog platelets using [3H]-PAF as radioligand.
[2] = as above; remark: listed apart in the source

Row | Compound | IC50 [1] [nM] | IC50 [2] [nM]
1 | COc1ccc(-c2ccc(C(=O)NCCCCc3cccnc3)cc2[N+](=O)[O-])cc1OC | 200 | –
2 | CCCc1cc(C(=O)N[C@H](C)CCCc2cccnc2)ccc1-c1ccc(OC)c(OC)c1 | 50 | –
3 | C[C@H](CCCc1cccnc1)NC(=O)c1ccc(-c2ccccc2)c(-c2ccccc2)c1 | 50 | –
4 | C=CCc1cc(C(=O)N[C@H](C)CCCc2cccnc2)ccc1-c1ccc(OC)c(OC)c1 | 80 | –
5 | COc1ccc(-c2ccc(C(=O)N[C@H](C)CCCc3cccnc3)cc2Br)cc1OC | 180 | –
6 | COc1ccc(-c2ccc(C(=S)N[C@H](C)CCCc3cccnc3)cc2)cc1OC | 60 | –
7 | COc1ccc(-c2ccc(C(=O)NCCCCc3cccnc3)cc2Br)cc1OC | 220 | –
8 | COc1ccc(-c2ccc(C(=O)N[C@H](C)CCCc3cccnc3)cc2[N+](=O)[O-])cc1OC | 200 | –
9 | COc1ccc(-c2ccc(C(=O)NCCCCc3cccnc3)cc2OC)cc1OC | 300 | –
10 | CCc1cc(C(=O)N[C@H](C)CCCc2cccnc2)ccc1-c1ccc(OC)c(OC)c1 | 4 | –

The next lines start with the values.

Row | IC50 [1] [nM] | IC50 [2] [nM] | Compound
11 | 300 | – | O=C(NCCCCc1cccnc1)c1ccc(-c2cccc(O)c2)cc1
12 | 280 | – | COc1cccc(-c2ccc(C(=O)NCCCCc3cccnc3)cc2)c1
13 | 125 | – | COc1ccc(-c2ccc(C(=O)NCCCCc3cccnc3)cc2-c2ccc(OC)cc2)cc1
14 | 200 | – | Cc1ccc(-c2ccc(C(=O)NCCCCc3cccnc3)cc2)cc1C
15 | 400 | – | COc1ccc(-c2ccc(C(=O)NCCCCc3cccnc3)cc2)cc1OC
16 | 500 | – | Cc1cccc(-c2ccc(C(=O)NCCCCc3cccnc3)cc2)c1
17 | 20 | – | COc1cccc(-c2ccc(C(=O)N[C@H](C)CCCc3cccnc3)cc2)c1
18 | – | 700 | O=C(NCCCCc1cccnc1)c1ccc(-c2cccc(OC3=CC=CC=CC3)c2)cc1
19 | 2100 | – | O=C(NCCCCc1cccnc1)c1ccc(-c2cccc(F)c2)c(F)c1
